Target: Cathepsin D (Homo sapiens, UniProt P07339)
Assay: In Vitro Enzymatic FRET Assay: Recombinant Cat D was expressed in CHO cells. The assay buffer for CathepsinD is 0.05 M citrate pH 3.5, 10% DMSO final, 5 mM CHAPS. The Cat D enzyme (9 nM) is pre-incubated for one hour with inhibitors, typically in about 1 uL of DMSO according to a serial dilution, is added thereto. The assays are effectively started by the addition of different FRET substrates (20 nM for Cat D) and the combination is incubated for one hour. The FRET assay is terminated with by addition of Tris buffer, which raises the pH to neutrality, and the fluorescence is determined. The FRET substrate is a peptide with commercially available fluorophore and quencher, on opposite sides of the BACE cleavage site. […] Proteolytic cleavage of the FRET substrate releases quenching of fluorescence (Cat D excitation 500 nm and emission 580 nm).
Assay type: cell-based

Sequence of Cathepsin D (P07339 65-162 limits assumed): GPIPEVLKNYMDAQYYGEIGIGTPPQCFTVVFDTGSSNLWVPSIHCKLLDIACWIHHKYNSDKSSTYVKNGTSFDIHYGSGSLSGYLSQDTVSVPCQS
Sequence of Cathepsin D (P07339 169-412 limits assumed): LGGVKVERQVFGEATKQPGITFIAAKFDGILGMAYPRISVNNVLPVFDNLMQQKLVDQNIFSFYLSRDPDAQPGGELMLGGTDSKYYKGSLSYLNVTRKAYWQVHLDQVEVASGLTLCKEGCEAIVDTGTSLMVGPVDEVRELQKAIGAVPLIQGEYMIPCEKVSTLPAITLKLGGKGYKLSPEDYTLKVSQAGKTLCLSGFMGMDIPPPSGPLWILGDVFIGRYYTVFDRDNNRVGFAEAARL

Structure (SMILES) | IC50 [µM]
Cc1cc(OC(F)F)cnc1C(=O)Nc1ccc(Cl)c(C2(C(F)F)N=C(N)O[C@@H]3C[C@@H]32)c1 (some centres not stated) | 958
NC1=N[C@](CF)(c2cc(NC(=O)c3ccc(Cl)cn3)cc(F)c2F)[C@H]2CC2O1 (mixture of isomers) | 229
